# Reference: ChEMBL document CHEMBL3885881, “DrugMatrix”
# Species on record: Rattus norvegicus
# Assay: DrugMatrix - Regimen: Daily Repeat
# Assay type: toxicity, organism-based, Sprague-Dawley
# Set-up: regimen Daily Repeat, gender Male, age 6-8 weeks
# Conditions: in vivo, po, route oral GAVAGE, vehicle 100 % SALINE; for ABSOLUTE BASOPHIL / ABSOLUTE EOSINOPHIL / ABSOLUTE LYMPHOCYTE / ABSOLUTE MONOCYTE / ABSOLUTE SEGMENTED NEUTROPHIL / BASOPHIL / EOSINOPHIL / ERYTHROCYTE COUNT / HEMATOCRIT / HEMOGLOBIN / LEUKOCYTE COUNT / LYMPHOCYTE / MEAN CORPUSCULAR HEMOGLOBIN / MEAN CORPUSCULAR HEMOGLOBIN CONCENTRATION / MEAN CORPUSCULAR VOLUME / MONOCYTE / NEUTROPHIL / NUCLEATED RED BLOOD CELLS / PLATELET COUNT: tissue Blood; for ALANINE AMINOTRANSFERASE / ALBUMIN / ALKALINE PHOSPHATASE / ASPARTATE AMINOTRANSFERASE / BLOOD UREA NITROGEN / CARBON DIOXIDE / CHLORIDE / CHOLESTEROL / CREATINE PHOSPHOKINASE / CREATININE / GLUCOSE / LACTATE DEHYDROGENASE / LIPASE / PHOSPHORUS / POTASSIUM / SODIUM / TOTAL BILIRUBIN / TOTAL PROTEIN / URIC ACID: tissue Plasma
# [1] = 0 mg/kg, 72 h, dose level Control, time 3 day
# [2] = 0 mg/kg, 120 h, dose level Control, time 5 day
# [3] = 17.5 mg/kg, 72 h, dose level Low, time 3 day
# [4] = 17.5 mg/kg, 120 h, dose level Low, time 5 day
compound,measurement,setting,value
NC(=O)C[S+]([O-])C(c1ccccc1)c1ccccc1 (configuration not stated) [MODAFINIL],ABSOLUTE BASOPHIL,[1],0 CELLS/uL
same,ABSOLUTE EOSINOPHIL,[1],37 CELLS/uL
same,ABSOLUTE LYMPHOCYTE,[1],12359.33 CELLS/uL
same,ABSOLUTE MONOCYTE,[1],122.67 CELLS/uL
same,ABSOLUTE SEGMENTED NEUTROPHIL,[1],847.67 CELLS/uL
same,BASOPHIL,[1],0%
same,EOSINOPHIL,[1],0.33%
same,ERYTHROCYTE COUNT,[1],5.75 x10E6/uL
same,HEMATOCRIT,[1],36.08%
same,HEMOGLOBIN,[1],14.07 G/DL
same,LEUKOCYTE COUNT,[1],13.37 x10E3/uL
same,LYMPHOCYTE,[1],92.5%
same,MEAN CORPUSCULAR HEMOGLOBIN,[1],24.47 pg
same,MEAN CORPUSCULAR HEMOGLOBIN CONCENTRATION,[1],38.98 G/DL
same,MEAN CORPUSCULAR VOLUME,[1],62.78 fL
same,MONOCYTE,[1],1%
same,NEUTROPHIL,[1],6.17%
same,NUCLEATED RED BLOOD CELLS,[1],0.17 /100WBC
same,PLATELET COUNT,[1],1202.17 x10E3/uL
same,ALANINE AMINOTRANSFERASE,[1],50.67 u/L
same,ALBUMIN,[1],4.13 G/DL
same,ALKALINE PHOSPHATASE,[1],356.33 u/L
same,ASPARTATE AMINOTRANSFERASE,[1],78.17 u/L
same,BLOOD UREA NITROGEN,[1],14.17 mg/dL
same,CARBON DIOXIDE,[1],31.33 mmol/L
same,CHLORIDE,[1],98.5 MEQ/L
same,CHOLESTEROL,[1],76.5 mg/dL
same,CREATINE PHOSPHOKINASE,[1],248.33 u/L
same,CREATININE,[1],0.2 mg/dL
same,GLUCOSE,[1],144 mg/dL
same,LACTATE DEHYDROGENASE,[1],107 u/L
same,LIPASE,[1],9.83 u/L
same,PHOSPHORUS,[1],12.8 mg/dL
same,POTASSIUM,[1],6.75 MEQ/L
same,SODIUM,[1],142 MEQ/L
same,TOTAL BILIRUBIN,[1],0.18 mg/dL
same,TOTAL PROTEIN,[1],5.98 G/DL
same,URIC ACID,[1],1.42 mg/dL
same,ABSOLUTE BASOPHIL,[2],0 CELLS/uL
same,ABSOLUTE EOSINOPHIL,[2],0 CELLS/uL
same,ABSOLUTE LYMPHOCYTE,[2],8681.17 CELLS/uL
same,ABSOLUTE MONOCYTE,[2],79.83 CELLS/uL
same,ABSOLUTE SEGMENTED NEUTROPHIL,[2],689 CELLS/uL
same,BASOPHIL,[2],0%
same,EOSINOPHIL,[2],0%
same,ERYTHROCYTE COUNT,[2],5.49 x10E6/uL
same,HEMATOCRIT,[2],33.55%
same,HEMOGLOBIN,[2],13.1 G/DL
same,LEUKOCYTE COUNT,[2],9.45 x10E3/uL
same,LYMPHOCYTE,[2],92.33%
same,MEAN CORPUSCULAR HEMOGLOBIN,[2],23.92 pg
same,MEAN CORPUSCULAR HEMOGLOBIN CONCENTRATION,[2],39.07 G/DL
same,MEAN CORPUSCULAR VOLUME,[2],61.22 fL
same,MONOCYTE,[2],0.67%
same,NEUTROPHIL,[2],7%
same,NUCLEATED RED BLOOD CELLS,[2],0.17 /100WBC
same,PLATELET COUNT,[2],1001.17 x10E3/uL
same,ALANINE AMINOTRANSFERASE,[2],49.33 u/L
same,ALBUMIN,[2],4.07 G/DL
same,ALKALINE PHOSPHATASE,[2],300.33 u/L
same,ASPARTATE AMINOTRANSFERASE,[2],83.5 u/L
same,BLOOD UREA NITROGEN,[2],16 mg/dL
same,CARBON DIOXIDE,[2],29.67 mmol/L
same,CHLORIDE,[2],100.5 MEQ/L
same,CHOLESTEROL,[2],74.33 mg/dL
same,CREATINE PHOSPHOKINASE,[2],489.67 u/L
same,CREATININE,[2],0.35 mg/dL
same,GLUCOSE,[2],151 mg/dL
same,LACTATE DEHYDROGENASE,[2],133.67 u/L
same,LIPASE,[2],11.17 u/L
same,PHOSPHORUS,[2],10.88 mg/dL
same,POTASSIUM,[2],5.5 MEQ/L
same,SODIUM,[2],145.7 MEQ/L
same,TOTAL BILIRUBIN,[2],0.2 mg/dL
same,TOTAL PROTEIN,[2],6.05 G/DL
same,URIC ACID,[2],0.68 mg/dL
same,ABSOLUTE BASOPHIL,[3],0 CELLS/uL
same,ABSOLUTE EOSINOPHIL,[3],0 CELLS/uL
same,ABSOLUTE LYMPHOCYTE,[3],8269.33 CELLS/uL
same,ABSOLUTE MONOCYTE,[3],22 CELLS/uL
same,ABSOLUTE SEGMENTED NEUTROPHIL,[3],608.67 CELLS/uL
same,BASOPHIL,[3],0%
same,EOSINOPHIL,[3],0%
same,ERYTHROCYTE COUNT,[3],5.35 x10E6/uL
same,HEMATOCRIT,[3],32.93%
same,HEMOGLOBIN,[3],12.87 G/DL
same,LEUKOCYTE COUNT,[3],8.9 x10E3/uL
same,LYMPHOCYTE,[3],93%
same,MEAN CORPUSCULAR HEMOGLOBIN,[3],24.07 pg
same,MEAN CORPUSCULAR HEMOGLOBIN CONCENTRATION,[3],39.03 G/DL
same,MEAN CORPUSCULAR VOLUME,[3],61.67 fL
same,MONOCYTE,[3],0.33%
same,NEUTROPHIL,[3],6.67%
same,NUCLEATED RED BLOOD CELLS,[3],0 /100WBC
same,PLATELET COUNT,[3],1018.67 x10E3/uL
same,ALANINE AMINOTRANSFERASE,[3],51.33 u/L
same,ALBUMIN,[3],4.2 G/DL
same,ALKALINE PHOSPHATASE,[3],290.33 u/L
same,ASPARTATE AMINOTRANSFERASE,[3],79.67 u/L
same,BLOOD UREA NITROGEN,[3],14 mg/dL
same,CARBON DIOXIDE,[3],27.67 mmol/L
same,CHLORIDE,[3],100.33 MEQ/L
same,CHOLESTEROL,[3],66 mg/dL
same,CREATINE PHOSPHOKINASE,[3],304.67 u/L
same,CREATININE,[3],0.22 mg/dL
same,GLUCOSE,[3],157.67 mg/dL
same,LACTATE DEHYDROGENASE,[3],92.67 u/L
same,LIPASE,[3],11 u/L
same,PHOSPHORUS,[3],11.77 mg/dL
same,POTASSIUM,[3],5.21 MEQ/L
same,SODIUM,[3],144.33 MEQ/L
same,TOTAL BILIRUBIN,[3],0.17 mg/dL
same,TOTAL PROTEIN,[3],5.93 G/DL
same,URIC ACID,[3],0.7 mg/dL
same,ABSOLUTE BASOPHIL,[4],0 CELLS/uL
same,ABSOLUTE EOSINOPHIL,[4],0 CELLS/uL
same,ABSOLUTE LYMPHOCYTE,[4],7020.33 CELLS/uL
same,ABSOLUTE MONOCYTE,[4],0 CELLS/uL
same,ABSOLUTE SEGMENTED NEUTROPHIL,[4],813 CELLS/uL
same,BASOPHIL,[4],0%
same,EOSINOPHIL,[4],0%
same,ERYTHROCYTE COUNT,[4],5.19 x10E6/uL
same,HEMATOCRIT,[4],32.03%
same,HEMOGLOBIN,[4],12.9 G/DL
same,LEUKOCYTE COUNT,[4],7.83 x10E3/uL
same,LYMPHOCYTE,[4],90%
same,MEAN CORPUSCULAR HEMOGLOBIN,[4],24.93 pg
same,MEAN CORPUSCULAR HEMOGLOBIN CONCENTRATION,[4],40.27 G/DL
same,MEAN CORPUSCULAR VOLUME,[4],61.83 fL
same,MONOCYTE,[4],0%
same,NEUTROPHIL,[4],10%
same,NUCLEATED RED BLOOD CELLS,[4],0 /100WBC
same,PLATELET COUNT,[4],1105.67 x10E3/uL
same,ALANINE AMINOTRANSFERASE,[4],54.33 u/L
same,ALBUMIN,[4],4.27 G/DL
same,ALKALINE PHOSPHATASE,[4],413 u/L
same,ASPARTATE AMINOTRANSFERASE,[4],84 u/L
same,BLOOD UREA NITROGEN,[4],11 mg/dL
same,CARBON DIOXIDE,[4],33.67 mmol/L
same,CHLORIDE,[4],98.33 MEQ/L
same,CHOLESTEROL,[4],73 mg/dL
same,CREATINE PHOSPHOKINASE,[4],441.67 u/L
same,CREATININE,[4],0.39 mg/dL
same,GLUCOSE,[4],133 mg/dL
same,LACTATE DEHYDROGENASE,[4],119.33 u/L
same,LIPASE,[4],10.67 u/L
same,PHOSPHORUS,[4],10.57 mg/dL
same,POTASSIUM,[4],6.11 MEQ/L
same,SODIUM,[4],143.73 MEQ/L
same,TOTAL BILIRUBIN,[4],0.13 mg/dL
same,TOTAL PROTEIN,[4],6.13 G/DL
same,URIC ACID,[4],0.7 mg/dL
